Assay results: patent US9586931B2 (Merck Sharp & Dohme Corp., priority 2012, dated 2017)

Target: T1, recombinant human GST-Syk (Homo sapiens, UniProt P43405)
T1 construct: purchased Carna Biosciences 08-176
Experiment: Homogeneous Time-Resolved Fluorescence (HTRF) assay for the recombinant human Syk enzyme
Format: biochemical
Settings: recombinant human GST-Syk 5 pM, ATP 25 μM, 10-dose titration 10 μM to 0.508 nM; read-out: rhSYK Activity IC50
Method in brief: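 Detection used time-resolved fluorescence 30 min after adding a quench mix (40 mM EDTA, 15 mM Tris pH 7.5, 0.01% Tween 20) containing 2 nM Europium anti-pTyr antibody and 70 nM streptavidin-APC. This followed 45 min of room-temperature peptide phosphorylation by recombinant GST-tagged human Syk.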

Compound	IC50
Cc1cc(Nc2cc(C(F)(F)F)ccn2)nc(-c2cn(C3C=CCCC3)nn2)c1 (stereo not shown) [Example 5.36, 6-(1-cyclohex-2-en-1-yl-1H-1,2,3-triazol-4-yl)-4-methyl-N-[4-(trifluoromethyl)pyridin-2-yl]pyridin-2-amine]	52 nM
Cc1cc(Nc2nccc(C(F)F)n2)cc(-c2cn(C(C)C3CNC(=O)O3)nn2)c1 (single isomer, unassigned) [Example 7.3, 5-(1-(4-(3-((4-(difluoromethyl)pyrimidin-2-yl)amino)-5-methylphenyl)-1H-1,2,3-triazol-1-yl)ethyl)oxazolidin-2-one]	5.5 nM
Cc1cc(Nc2nccc(C(F)(F)F)n2)cc(-c2cn(CCCN3CCNC3=O)nn2)c1 [Example 5.71, 1-{3-[4-(3-methyl-5-{[4-(trifluoromethyl)pyrimidin-2-yl]amino}phenyl)-1H-1,2,3-triazol-1-yl]propyl}imidazolidin-2-one]	152 nM
4-{1-[4-(6-{[4-(cyclohexyloxy)pyridin-2-yl]amino}-4-methylpyridin-2-yl)-1H-1,2,3-triazol-1-yl]ethyl}benzoic acid [Example 2.7]	16.7 nM
Cc1cc(Nc2nccc(C(F)F)n2)cc(-c2cn(CC(C)(O)CO)nn2)c1 (single isomer, unassigned) [Example 21.7, 3-[4-(3-{[4-(difluoromethyl)pyrimidin-2-yl]amino}-5-methylphenyl)-1H-1,2,3-triazol-1-yl]-2-methylpropane-1,2-diol]	7.2 nM
Cc1cc(Nc2nccc(C(F)(F)F)n2)cc(-c2cn(CCS(C)(=O)=O)nn2)c1 [Example 5.62, N-(3-methyl-5-{1-[2-(methylsulfonyl)ethyl]-1H-1,2,3-triazol-4-yl}phenyl)-4-(trifluoromethyl)pyrimidin-2-amine]	46.4 nM
Cc1cc(Nc2ncc(F)c(C(F)F)n2)cc(-c2cn(C3CCCCC3O)nn2)c1 (single isomer, unassigned) [Example 7.30, 2-[4-(3-{[4-(difluoromethyl)-5-fluoropyrimidin-2-yl]amino}-5-methylphenyl)-1H-1,2,3-triazol-1-yl]cyclohexanol]	9.9 nM
Cc1cc(Nc2cc(C(F)(F)F)ccn2)nc(-c2cn([C@@H](C)C(=O)N3CCC[C@H]3C(N)=O)nn2)c1 [Example 1.20, 1-{(2S)-2-[4-(4-methyl-6-{[4-(trifluoromethyl)pyridin-2-yl]amino}pyridin-2-yl)-1H-1,2,3-triazol-1-yl]propanoyl}prolinamide]	87.2 nM
Cc1cc(Nc2ncc(F)c(C(F)F)n2)cc(-c2cn(CC3OC(=O)NC3C)nn2)c1 (single isomer, unassigned) [Example 7.39, 5-{[4-(3-{[4-(difluoromethyl)-5-fluoropyrimidin-2-yl]amino}-5-methylphenyl)-1H-1,2,3-triazol-1-yl]methyl}-4-methyl-1,3-oxazolidin-2-one]	12.3 nM
Cc1cc(Nc2cc(C(F)F)ccn2)nc(-c2cn(C3CCCC(O)C3O)nn2)c1 (stereo not shown) [Example 21.37, 3-(4-(6-((4-(difluoromethyl)pyridin-2-yl)amino)-4-methylpyridin-2-yl)-1H-1,2,3-triazol-1-yl)cyclohexane-1,2-diol]	1.9 nM
Cc1cc(Nc2nccc(C(F)F)n2)cc(-c2cn(C(C)C(C)(O)CO)nn2)c1 (single isomer, unassigned) [Example 30.2, 3-(4-(3-((4-(Difluoromethyl)pyrimidin-2-yl)amino)-5-methylphenyl)-1H-1,2,3-triazol-1-yl)-2-methylbutane-1,2-diol]	6.3 nM
Cc1cc(Nc2cc(C(F)(F)F)ccn2)nc(-c2cn(-c3ccc(C(=O)O)cc3)nn2)c1 [Example 7.1, 4-(4-(4-Methyl-6-((4-(trifluoromethyl)pyridin-2-yl)amino)pyridin-2-yl)-1H-1,2,3-triazol-1-yl)benzoic acid]	11.1 nM
Cc1cc(Nc2cc(C(F)(F)F)ccn2)nc(-c2cn(C(C(=O)O)c3ccc(F)cc3)nn2)c1 (stereo not shown) [Example 3.10, (4-fluorophenyl)[4-(4-methyl-6-{[4-(trifluoromethyl)pyridin-2-yl]amino}pyridin-2-yl)-1H-1,2,3-triazol-1-yl]acetic acid]	3.9 nM
Cc1cc(Nc2cc(C(F)(F)F)ccn2)nc(-c2cn(C(CO)c3ccc(C(=O)O)cc3)nn2)c1 (stereo not shown) [Example 3.17, 4-{2-hydroxy-1-[4-(4-methyl-6-{[4-(trifluoromethyl)pyridin-2-yl]amino}pyridin-2-yl)-1H-1,2,3-triazol-1-yl]ethyl}benzoic acid]	0.1 nM
Cc1cc(Nc2cc(C(F)(F)F)ccn2)nc(-c2cn(C[C@]3(O)C[C@H](C#N)C3)nn2)c1 [Example 4.26, trans-3-hydroxy-3-{[4-(4-methyl-6-{[4-(trifluoromethyl)pyridin-2-yl]amino}pyridin-2-yl)-1H-1,2,3-triazol-1-yl]methyl}cyclobutanecarbonitrile]	0.7 nM
Cc1cc(Nc2cc(C(F)(F)F)ccn2)nc(-c2cn(C(CO)c3ccc(F)cc3)nn2)c1 (stereo not shown) [Example 13.7, 2-(4-fluorophenyl)-2-[4-(4-methyl-6-{[4-(trifluoromethyl)pyridin-2-yl]amino}pyridin-2-yl)-1H-1,2,3-triazol-1-yl]ethanol]	3.7 nM
Cc1cc(Nc2nccc(C(F)F)n2)cc(-c2cn(C3CCCCC3(C)O)nn2)c1 (single isomer, unassigned) [Example 7.20, 2-[4-(3-{[4-(difluoromethyl)pyrimidin-2-yl]amino}-5-methylphenyl)-1H-1,2,3-triazol-1-yl]-1-methylcyclohexanol]	15.4 nM
Cc1cc(Nc2cc(C(F)F)ccn2)nc(-c2cn(C3CCCCC3O)nn2)c1 (single isomer, unassigned) [Example 7.24, 2-[4-(6-{[4-(difluoromethyl)pyridin-2-yl]amino}-4-methylpyridin-2-yl)-1H-1,2,3-triazol-1-yl]cyclohexanol]	1.2 nM
Cc1cc(Nc2cc(C(F)(F)F)ccn2)nc(-c2cn(C(C)C(=O)N3CCc4[nH]c5c(Cl)cccc5c4C3)nn2)c1 (stereo not shown) [Example 1.41, 6-{1-[2-(6-chloro-1,3,4,5-tetrahydro-2H-pyrido[4,3-b]indol-2-yl)-1-methyl-2-oxoethyl]-1H-1,2,3-triazol-4-yl}-4-methyl-N-[4-(trifluoromethyl)pyridin-2-yl]pyridin-2-amine]	131 nM

Results, then the compound that gave them:

IC50	Compound
2.2 nM	Cc1cc(Nc2cc(C(F)(F)F)ccn2)nc(-c2cn(Cc3cc[nH]n3)nn2)c1 [Example 5.111, 4-methyl-6-[1-(1H-pyrazol-3-ylmethyl)-1H-1,2,3-triazol-4-yl]-N-[4-(trifluoromethyl)pyridin-2-yl]pyridin-2-amine]
14.9 nM	Cc1cc(Nc2cc(C(F)(F)F)ccn2)nc(-c2cn(CC(O)CN3CCOC3=O)nn2)c1 (stereo not shown) [Example 4.33, 3-{2-hydroxy-3-[4-(4-methyl-6-{[4-(trifluoromethyl)pyridin-2-yl]amino}pyridin-2-yl)-1H-1,2,3-triazol-1-yl]propyl}-1,3-oxazolidin-2-one]
44.9 nM	Cc1cc(Nc2cc(C(F)(F)F)ccn2)nc(-c2cn(CC(O)C(=O)O)nn2)c1 (racemic) [Example 5.39, 2-hydroxy-3-[4-(4-methyl-6-{[4-(trifluoromethyl)pyridin-2-yl]amino}pyridin-2-yl)-1H-1,2,3-triazol-1-yl]propanoic acid]
19.6 nM	Cc1cc(Nc2cc(C(F)(F)F)ccn2)nc(-c2cn(CC3(O)CCCCC3O)nn2)c1 (stereo not shown) [Example 10.10, 1-{[4-(4-methyl-6-{[4-(trifluoromethyl)pyridin-2-yl]amino}pyridin-2-yl)-1H-1,2,3-triazol-1-yl]methyl}cyclohexane-1,2-diol]
2.7 nM	Cc1cc(Nc2cc(C(F)F)ccn2)nc(-c2cn(C(C)C(C)(O)CO)nn2)c1 (single isomer, unassigned) [Example 30.5, 3-[4-(6-{[4-(difluoromethyl)pyridin-2-yl]amino}-4-methylpyridin-2-yl)-1H-1,2,3-triazol-1-yl]-2-methylbutane-1,2-diol]
8.3 nM	Cc1cc(Nc2cc(C(F)(F)F)ccn2)nc(-c2cn(CCO)nn2)c1 [Example 5.91, 2-[4-(4-methyl-6-{[4-(trifluoromethyl)pyridin-2-yl]amino}pyridin-2-yl)-1H-1,2,3-triazol-1-yl]ethanol]
7.4 nM	Cc1cc(Nc2nccc(C3CC3)n2)cc(-c2cn(CC(C)(O)C(C)(C)O)nn2)c1 (stereo not shown) [Example 21.14, 1-(4-{3-[(4-cyclopropylpyrimidin-2-yl)amino]-5-methylphenyl}-1H-1,2,3-triazol-1-yl)-2,3-dimethylbutane-2,3-diol]
6.2 nM	Cc1cc(Nc2nccc(C)n2)cc(-c2cn(C[C@](C)(O)CO)nn2)c1 (single isomer, unassigned) [Example 21.1, 2-Methyl-3-(4-(3-methyl-5-((4-methylpyrimidin-2-yl)amino)phenyl)-1H-1,2,3-triazol-1-yl)propane-1,2-diol]
4.6 nM	Cc1cc(Nc2cc(C(F)(F)F)ccn2)nc(-c2cn(C(C)C(O)CC#N)nn2)c1 (stereo not shown) [Example 4.3, 3-hydroxy-4-[4-(4-methyl-6-{[4-(trifluoromethyl)pyridin-2-yl]amino}pyridin-2-yl)-1H-1,2,3-triazol-1-yl]pentanenitrile]
85.6 nM	Cc1cc(Nc2cc(C)c(F)cn2)nc(-c2cn(CC(C)(O)C(C)(C)O)nn2)c1 (stereo not shown) [Example 21.29, 1-(4-{6-[(5-fluoro-4-methylpyridin-2-yl)amino]-4-methylpyridin-2-yl}-1H-1,2,3-triazol-1-yl)-2,3-dimethylbutane-2,3-diol]
71.8 nM	CCOC(=O)C1(n2cc(-c3cc(C)cc(Nc4cc(C(F)(F)F)ccn4)n3)nn2)CCC1 [Example 8.2, ethyl 1-[4-(4-methyl-6-{[4-(trifluoromethyl)-pyridin-2-yl]amino}-pyridin-2-yl)-1H-1,2,3-triazol-1-yl]cyclobutane-carboxylate]
300 nM	Cc1cc(Nc2cc(C(F)(F)F)ccn2)nc(-c2cn(C/C=C/c3ccccc3)nn2)c1 [Example 5.35, 4-methyl-6-{1-[(2E)-3-phenylprop-2-en-1-yl]-1H-1,2,3-triazol-4-yl}-N-[4-(trifluoromethyl)pyridin-2-yl]pyridin-2-amine]
